Test results taken from publication PMC9234962, “Optimization of Peptide Linker-Based Fluorescent Ligands for the Histamine H1 Receptor” (Journal of Medicinal Chemistry, 2022).
Like-named read-outs stand apart in the source and are kept apart here. Square brackets hold non-standard residues; d marks the D form. Peptide text beside a SMILES is read from it. * marks the point of attachment. X1 = O=C(COc1ccc(/C=C/C2=[N+]3C(=Cc4ccc(-c5cccs5)n4[B-]3(F)F)C=C2)cc1)*; Propanoyl(3-Pip(4-O-2-BnPh)) = O=C(CCN1CCC(Oc2ccccc2Cc2ccccc2)CC1)*; βAla = NCCC(=O)O

Legend:
[1] = target: T1, Nluc-H4R (Homo sapiens, UniProt Q9H3N8); test: NanoBRET saturation binding assay on Nluc-H4R HEK293T cell homogenates; conditions: for Kd / Nluc-H4R pKD: cell homogenates, highest concentration 1 μM for 31a, 31k; for Nluc-H4R pKD: mean ± SEM, three experiments; for binding at H4R in saturation assay (in words): concentrations of up to 1 μM
T1 construct: expressed in transfected cells; host or cells: HEK293T, transient transfection; sonicated cell homogenates
T1 sequence (Q9H3N8 whole entry): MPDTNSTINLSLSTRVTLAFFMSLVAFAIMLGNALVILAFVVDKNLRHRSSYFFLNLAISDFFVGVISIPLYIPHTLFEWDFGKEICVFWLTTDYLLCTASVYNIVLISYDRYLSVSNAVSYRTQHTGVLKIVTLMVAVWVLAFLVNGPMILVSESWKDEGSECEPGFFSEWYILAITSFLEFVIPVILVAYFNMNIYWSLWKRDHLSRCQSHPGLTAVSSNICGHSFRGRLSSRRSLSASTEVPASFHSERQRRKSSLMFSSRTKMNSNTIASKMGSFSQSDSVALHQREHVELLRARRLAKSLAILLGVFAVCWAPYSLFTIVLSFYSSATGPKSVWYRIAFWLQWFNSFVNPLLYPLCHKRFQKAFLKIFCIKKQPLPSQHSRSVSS
Method: (§1) HEK293T cells were transiently transfected with 2.5 μg of cDNA encoding Nluc-H3R or Nluc-H4R and 2.5 μg of empty pcDEF3 vector using the polyethylenimine method as described previously in Mocking et al.[23] Two days after transfection, cells were collected in phosphate-buffered saline (PBS) and centrifuged at 1900g for 10 min and the cell pellet was stored at −20°C until the day of experiment. The pellet was resuspended in HBSS buffer, and cells were disrupted using a Branson sonifier 250 (Boom bv., Meppel, the Netherlands) prior to use in a NanoBRET binding assay.
For cell membrane NanoBRET saturation binding experiments, cell homogenates expressing the Nluc-H3R or Nluc-H4R were incubated with the required concentrations of fluorescent ligand in the absence and presence of 10 μM clobenpropit in HBSS for 2 h at 25 °C. For all NanoBRET binding experiments, 10 μM NanoGlo substrate (Promega) was added to each well after the incubation period and fluorescence and luminescence emissions were measured after 5 min.
(§2) Total and non-specific saturation binding curves from NanoBRET saturation binding assay were fitted simultaneously using eq 1: [drawing 4] 1 where Bmax is the maximal specific binding, [B] is the concentration of fluorescent ligand in nM, KD is the equilibrium dissociation constant in nM, M is the slope of the non-specific component, and C is the intercept with the Y axis.

[2] = target: T1, Nluc-H4R; design: method as in PMID 30249614; conditions: literature value, cited from earlier work
[3] = target: T2, Nluc-H3R (Homo sapiens, UniProt Q9Y5N1); test: NanoBRET saturation binding assay on Nluc-H3R HEK293T cell homogenates; conditions: for binding at H3R in saturation assay (in words): concentrations of up to 1 μM; for Kd / Nluc-H3R pKD: cell homogenates, highest concentration 1 μM for 31a, 31k; for Nluc-H3R pKD: mean ± SEM, three experiments
T2 construct: expressed in transfected cells; host or cells: HEK293T, transient transfection; sonicated cell homogenates
T2 sequence (Q9Y5N1 whole entry): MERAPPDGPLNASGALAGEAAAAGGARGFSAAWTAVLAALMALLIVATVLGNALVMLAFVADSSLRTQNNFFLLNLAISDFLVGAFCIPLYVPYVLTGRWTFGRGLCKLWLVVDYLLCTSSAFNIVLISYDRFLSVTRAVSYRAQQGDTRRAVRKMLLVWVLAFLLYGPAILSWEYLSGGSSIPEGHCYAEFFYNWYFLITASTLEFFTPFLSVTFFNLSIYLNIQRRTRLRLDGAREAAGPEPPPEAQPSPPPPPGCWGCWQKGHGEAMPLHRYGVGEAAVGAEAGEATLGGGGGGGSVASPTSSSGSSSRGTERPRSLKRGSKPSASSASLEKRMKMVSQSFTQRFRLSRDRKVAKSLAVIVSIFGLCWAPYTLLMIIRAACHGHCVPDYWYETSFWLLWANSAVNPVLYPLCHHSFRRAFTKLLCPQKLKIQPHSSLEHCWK
Method: as §1
For all NanoBRET binding experiments, 10 μM NanoGlo substrate (Promega) was added to each well after the incubation period and fluorescence and luminescence emissions were measured after 5 min.
as §2

[4] = target: H1R; conditions: cited from earlier work
[5] = target: T3, YFP-tagged H1R (Homo sapiens, UniProt P35367); test: confocal imaging of YFP-tagged H1R expressing CHO cells; type: cell-based; conditions: 1, 5, 10, 25 nM, 30 min, 37 °C, ± 10 μM mepyramine
T3 construct: expressed in transfected cells; host or cells: CHO cells
T3 sequence (P35367 whole entry): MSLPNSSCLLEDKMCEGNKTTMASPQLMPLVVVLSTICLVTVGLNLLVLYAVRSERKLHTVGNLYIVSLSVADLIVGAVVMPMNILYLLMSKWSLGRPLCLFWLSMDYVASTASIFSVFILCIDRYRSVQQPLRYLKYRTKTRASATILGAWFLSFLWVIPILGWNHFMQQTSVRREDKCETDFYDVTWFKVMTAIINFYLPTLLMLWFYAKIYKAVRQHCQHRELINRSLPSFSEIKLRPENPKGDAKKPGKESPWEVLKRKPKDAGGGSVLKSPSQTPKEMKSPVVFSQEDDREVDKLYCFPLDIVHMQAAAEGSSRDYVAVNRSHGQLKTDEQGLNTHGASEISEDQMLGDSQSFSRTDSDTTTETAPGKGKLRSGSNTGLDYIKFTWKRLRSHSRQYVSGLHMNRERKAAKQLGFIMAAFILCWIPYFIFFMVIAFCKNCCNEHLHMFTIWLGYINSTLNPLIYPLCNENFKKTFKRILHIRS
Method: H1R-YFP expressing CHO cells were grown to approximately 80% confluency on an 8-well Labtek chambered coverglass (Nunc Nalgene). On the day of experiment, the cells were washed two times with 200 μL of HBSS and subsequently incubated in the presence or absence of 10 μM mepyramine for 30 min at 37 °C in humidified air with 0% CO2. The required concentration of 31a was added to the wells and incubated for another 30 min at 37 °C. Images were acquired using a Zeiss LSM710 confocal microscope (Carl Zeiss GmbH, Hena, Germany) fitted with a 63× plan-Apochromat NA1.3 Ph3 oil-immersion lens. For YFP, a 488 nm argon laser was used for excitation and emission was detected using a BP505-30 filter. For fluorescent ligand 31a, a 633 nm helium-neon laser was used for excitation and emission was detected using a 650 nm long pass filter. A pinhole of 1 Airy Unit was used, and fixed laser power, gain, and offset for the BODIPY 630/650 containing compounds were kept constant across all experiments.

[6] = target: T4, human H1R (Homo sapiens, UniProt P35367); test: Ca2+ mobilization assay on human H1R-expressing CHO cells; type: cell-based; conditions: Gaddum equation, shift in histamine EC25 with 1 μM antagonist
T4 construct: expressed in transfected cells; host or cells: CHO cells
T4 sequence (P35367 whole entry): as above
Method: CHO cells expressing H1R were grown to confluence in black-walled, clear-bottom 96-well plates. On the day of the experiment, media were replaced with 100 μL of HBSS containing […], 2.3 μM Fluo-4AM (Invitrogen), 0.023% Pluronic F-127, 0.5 mM Brilliant Black BN, and 1 μM required fluorescent ligand and the plates incubated for 1 h at 37 °C in the dark. The plates were then placed in the multi-well fluorometric imaging plate reader FlexStation3 (Molecular Devices, Sunnyvale, CA) and HBSS only or HBSS containing the required concentration of histamine was added after 15 s. Fluo-4 fluorescence was measured at 520 nm (excitation at 485 nm) every 1.52 s for 200 s. For each well, the peak maximum–minimum–maximum change in fluorescence value was taken and plotted against concentration of histamine to give a dose–response curve.
Estimated affinity values (pKB) were calculated from the shift in agonist concentration–response curves in the presence of the fluorescent antagonists using the Gaddum equation (7): [drawing 10] 7 where DR (dose ratio) is the ratio of the agonist concentration required to stimulate an identical response in the presence and absence of antagonist, [B]. DR was determined from the EC25 value as there was a decrease in observed maximal efficacy of histamine in the presence of all 10 fluorescent antagonists.

[7] = target: T5, Nluc-H1R (Homo sapiens, UniProt P35367); test: NanoBRET association kinetics assay on Nluc-H1R HEK293T cells; type: binding; design: expressed in transfected cells; conditions: for Kd: kinetic pKD, read-out: pKD determined from kon and koff (converted); for Kd / kon / MRT (mean residence time, 1/koff) / koff: mean ± SEM; for residence time: read-out: mean residence times (MRT); for kon / MRT (mean residence time, 1/koff) / koff: real-time NanoBRET; for kon: room temperature, 90 min
T5 sequence (P35367 whole entry): as above
Method: For whole cell NanoBRET association kinetic experiments, 10 μM furimazine was added to each well and incubated at room temperature in the dark for 15 min to allow for stabilization of the luminescence signal. The required concentration of fluorescent ligand in the presence or absence of 10 μM of doxepin was added simultaneously, and the plates were read immediately with each well being read once per min for 90 min.
For the NanoBRET association kinetic experiments, the BRET ratio was determined for each concentration of fluorescent ligand at each time point in the presence or absence of 10 μM of doxepin. Specific binding was calculated by subtracting non-specific binding from total binding.

[8] = target: T5, Nluc-H1R; test: NanoBRET saturation binding assay on Nluc-H1R expressing HEK293T cells; design: expressed in transfected cells; conditions: saturation binding curves, whole HEK293T cells; for pKD: non-specific with 10 μM mepyramine, mean ± SEM
From the text: as §2

[9] = mean ± SEM, four experiments, read-out: pKB (converted)

| SMILES | Kd [1] [nM] | Nluc-H4R pKD [1] | binding at H4R in saturation assay (in words) [1] | binding at H3R in saturation assay (in words) [3] | Kb [6, 9] [nM] | Kb ([6]; read-out: KB (converted)) [nM] | Kd [7] [nM] | residence time [7] [min] | kon [7] [M⁻¹ s⁻¹] | MRT (mean residence time, 1/koff) [7] [h] | koff [7] [s⁻¹] | Kd [3] [nM] | Nluc-H3R pKD [3] | Kd [8] [nM] | pKD [8] | also measured |
| --- | --- | --- | --- | --- | --- | --- | --- | --- | --- | --- | --- | --- | --- | --- | --- | --- |
| NC(=NCc1ccc(Cl)cc1)SCCCc1cnc[nH]1 [CA200843, reference compound] | 31 | 7.51 ± 0.04 | concentration-dependent, saturable and reversible binding | concentration-dependent, saturable and reversible binding |  |  |  |  |  |  |  |  |  |  |  | pKD at Nluc-H4R reported in literature [2]: 7.15; Kd ([2]; read-out: binding affinity at Nluc-H4R reported in literature): 70 nM |
| C[C@@H](NC(=O)CCN1CCC(Oc2ccccc2Cc2ccccc2)CC1)C(=O)N[C@H](C)C(=O)N[C@H](C)C(=O)NCCNC(=O)CCCCCNC(=O)COc1ccc(/C=C/C2=[N+]3C(=Cc4ccc(-c5cccs5)n4[B-]3(F)F)C=C2)cc1 [Compound 1] |  |  |  |  |  |  |  |  |  |  |  |  |  |  |  | Radioligand binding assay (hH1R) pKi [4]: 8.4 ± 0.1 |
| CC(C)[C@H](NC(=O)CCN1CCC(Oc2ccccc2Cc2ccccc2)CC1)C(=O)N[C@@H](CO)C(=O)N[C@@H](CC(N)=O)C(=O)NCCC(=O)N[C@@H](CCCCNC(=O)COc1ccc(/C=C/C2=[N+]3C(=Cc4ccc(-c5cccs5)n4[B-]3(F)F)C=C2)cc1)C(N)=O [Compound 31a, (S)-N1-(3-(((S)-1-Amino-6-(2-(4-((E)-2-(5,5-difluoro-7-(thiophen-2-yl)-5H-5λ^4,6λ^4-dipyrrolo[1,2-c:2’,1’-f][1,3,2]diazaborinin-3-yl)vinyl)phenoxy)acetamido)-1-oxohexan-2-yl)amino)-3-oxopropyl)-2-((S)-2-((S)-2-(3-(4-(2-benzylphenoxy)piperidin-1-yl)propanamido)-3-methylbutanamido)-3-hydroxypropanamido)succinamide] ({Propanoyl(3-Pip(4-O-2-BnPh))}-VSN[βAla]K(X1)-NH2) | < 1000 | < 6 | little to no binding | little to no binding | 2.75 | 3 | 17.8 | > 60 | 14000 | 1.26 ± 0.17 | 0.000233 | < 1000 | < 6 | 4 | 8.40 ± 0.08 | localization in confocal imaging [5]: localized to the plasma membrane of the cells with almost no intracellular uptake |
| C[C@H](NC(=O)[C@H](C)NC(=O)[C@H](Cc1ccccc1)NC(=O)CCN1CCC(Oc2ccccc2Cc2ccccc2)CC1)C(=O)NCCC(=O)N[C@@H](CCCCNC(=O)COc1ccc(/C=C/C2=[N+]3C(=Cc4ccc(-c5cccs5)n4[B-]3(F)F)C=C2)cc1)C(N)=O [Compound 31k, (S)-2-((6S,9S,12S)-12-Benzyl-16-(4-(2-benzylphenoxy)piperidin-1-yl)-6,9-dimethyl-5,8,11,14-tetraoxo-4,7,10,13-tetraazahexadecanamido)-6-(2-(4-((E)-2-(5,5-difluoro-7-(thiophen-2-yl)-5H-5λ^4,6λ^4-dipyrr-olo[1,2-c:2’,1’-f][1,3,2]diazaborinin-3-yl)vinyl)phenoxy)acetamido)hexanamide] ({Propanoyl(3-Pip(4-O-2-BnPh))}-FAA[βAla]K(X1)-NH2) | < 1000 | < 6 | little to no binding | little to no binding | 2.57 | 3 | 22.9 | > 60 | 11400 | 1.31 ± 0.24 | 0.000233 | < 1000 | < 6 | 12 | 7.92 ± 0.08 | selectivity for H1R over H3R and H4R ([3]; from NanoBRET saturation binding at H1R, H3R, H4R): approximately 100 fold |
| c1ccc(Cc2ccccc2OC2CCNCC2)cc1 [VUF13816, 4-(2-Benzylphenoxy)piperidine] |  |  |  |  |  |  |  |  |  |  |  |  |  |  |  | radioligand binding assay pKi ([4]; H1R): 8.20 |
